Test results taken from ChEMBL document CHEMBL4152182, “Recent acquisitions on oxyprenylated secondary metabolites as anti-inflammatory agents” (Eur J Med Chem, 2018).

Columns and labels:
[1] = Antitumor activity in mouse adenocarcinoma model at 100 ppm relative to control; assay type: functional
[2] = Antitumor activity in mouse adenocarcinoma model at 500 ppm relative to control; assay type: functional
Mus musculus [3] = experiment: Anti-inflammatory activity in mouse assessed as inhibition of croton oil-induced ear edema at 0.3 umol/cm2 administered topically relative to control; assay type: functional
Mus musculus [4] = experiment: Anti-inflammatory activity in mouse assessed as inhibition of croton oil-induced ear edema at 10 umol/cm2 administered topically relative to control; assay type: functional
Mus musculus [5] = experiment: (§1) Anti-parkinson's activity in intranigral LPS-induced Parkinson's disease-like C57BL/6 mouse model assessed as inhibition of microglial hyperactivation by measuring IBA1 positive cells at 19.3 mg/kg, sc once daily for 21 days starting from day 1 post LPS treatment by immunohistochemistry relative to control; assay type: functional; settings: C57BL/6, sc
Mus musculus [6] = experiment: Anti-parkinson's activity in intranigral LPS-induced Parkinson's disease-like C57BL/6 mouse model assessed as astrocytes activation at 19.3 mg/kg, sc once daily for 21 days starting from day 1 post LPS treatment by confocal fluorescence microscopic method relative to control; assay type: functional
Mus musculus [7] = experiment: as §1, with “protection against dopaminergic neuronal loss in substantia nigra” for “inhibition of microglial hyperactivation”, “increase in TH-positive neuronal” for “IBA1 positive”; assay type: functional
Mus musculus [8] = experiment: Anti-parkinson's activity in intranigral LPS-induced Parkinson's disease-like C57BL/6 mouse model assessed as astrocytes activation at 25 mg/kg, sc once daily for 21 days starting from day 1 post LPS treatment by confocal fluorescence microscopic method relative to control; assay type: functional
Mus musculus [9] = experiment: as §1, with “protection against dopaminergic neuronal loss in substantia nigra” for “inhibition of microglial hyperactivation”, “increase in TH-positive neuronal” for “IBA1 positive”, “25” for “19.3”; assay type: functional
Mus musculus [10] = experiment: as §1, with “25” for “19.3”; assay type: functional; settings: C57BL/6, sc
RAW264.7 [11] = experiment: Anti-inflammatory activity in mouse RAW264.7 cells assessed as inhibition of LPS-induced COX-2 gene expression relative to control; assay type: functional
Neutrophil = experiment: Anti-inflammatory activity in human neutrophils assessed as inhibition of fMLP/CB-induced superoxide anion generation; assay type: functional, cell-based
RAW264.7 [12] = experiment: Anti-inflammatory activity in mouse RAW264.7 cells assessed as inhibition of LPS-induced iNOS gene expression relative to control; assay type: functional
Mus musculus [13] = experiment: Anti-inflammatory activity in mouse assessed as inhibition of carrageenan-induced paw edema at 10 mg/kg preincubated for 5 hrs followed by carrageenan challenge relative to control; assay type: functional
RAW264.7 [14] = experiment: Anti-inflammatory activity in mouse RAW264.7 cells assessed as inhibition of LPS-induced NO production; assay type: functional, cell-based

In the case of `C=C(C)CCC/C(C)=C/COc1ccc(/C=C/C(=O)N[C@@H](CCCNC(=N)N[N+](=O)[O-])C(=O)O)cc1OC`, the Activity [1] is reported as 84% and the Activity [2] is reported as 94%.
With `COc1cc(CO)cc(OC)c1OCC=C(C)C` the “inhibition (INH)” value (Mus musculus [3]) was 31% and the “inhibition (INH)” value (Mus musculus [4]) was 77%.
For `CC(C)=CCOc1ccc2ccc(=O)oc2c1` [7-PRENYLOXYCOUMARIN], the inhibition in vivo at 19.3 mg/kg (Mus musculus [5]) was 19.1%, the Activity (Mus musculus [6]) was 65.3% and the “fold change (FC)” value (Mus musculus [7]) was 2.2.
In the case of `CC(C)=CCC/C(C)=C/COc1ccc2ccc(=O)oc2c1` [AURAPTENE], the Activity (Mus musculus [8]) is reported as 68.4%, the “fold change (FC)” value (Mus musculus [9]) is reported as 2.2 and the inhibition in vivo at 25 mg/kg (Mus musculus [10]) is reported as 39.1%.
For `CC(C)=CCOc1ccc(CCO)cc1` [ETROGOL], the “inhibition (INH)” value (Mus musculus [3]) was 32% and the “inhibition (INH)” value (Mus musculus [4]) was 78%.
For `CC(C)=CCOc1c2occc2cc2ccc(=O)oc12` [PENTOSALEN], the “inhibition (INH)” value (RAW264.7 [11]) was 66.7%, the IC50 (Neutrophil) was 1.7 µM and the “inhibition (INH)” value (RAW264.7 [12]) was 69.2%. For the same compound, the inhibition in vivo at 10 mg/kg (Mus musculus [13]) was 54.4%.
For `CC(C)=CCOC1=CC(=O)c2ccccc2C1=O`, the “inhibition (INH)” value (Mus musculus [3]) was 14%.
`COc1c(OC/C=C(\C)CCC=C(C)C)ccc2ccc(=O)oc12` [COLLININ] showed an IC50 (RAW264.7 [14]) of 5.9 µM.
For `CC(C)=CCOc1ccc(CCCO)cc1`, the “inhibition (INH)” value (Mus musculus [3]) was 28% and the “inhibition (INH)” value (Mus musculus [4]) was 68%.
